Tested on: VEGF-induced EBD extravasation
Test: Miles Assay: VEGF-induced Dermal Extravasation in Guinea Pig
Type: in vivo
Conditions: oral administration, Table 3
Method: (§1) Automated FLIPR (Fluorometric Imaging Plate Reader) technology was used to screen for inhibitors of VEGF induced increases in intracellular calcium levels in fluorescent dye loaded endothelial cells. HUVEC (human umbilical vein endothelial cells) (Clonetics) were seeded in 96-well fibronectin coated black-walled plates overnight @ 37° C./5% CO2. Cells were loaded with calcium indicator Fluo-4 for 45 minutes at 37° C. Cells were washed 4 times (Original Cell Wash, Labsystems) to remove extracellular dye. Test compounds were reconstituted in 100% DMSO and added to the cells to give a final DMSO concentration of 0.1%. […] Changes in fluorescence at 516 nm were measured simultaneously in all 96 wells using a cooled CCD camera. Data were generated by determining max-min fluorescence levels for unstimulated, stimulated, and drug treated samples. IC50 values for test compounds were calculated from % inhibition of VEGF stimulated responses in the absence of inhibitor. Protocol for KDR Assay: The cytoplasmic domain of the human VEGF receptor (VEGFR-2) was expressed as a Histidine-tagged fusion protein following infection of insect cells using an engineered baculovirus. His-VEGFR-2 was purified to homogeneity, as determined by SDS-PAGE, using nickel resin chromatography. […]

SMILES | in-vivo activity (Miles Assay, in words)
Cc1cccc2c1C(=CNc1cc[nH]n1)C(=O)N2 [Example 6, 4-Methyl-3-[(1H-pyrazol-3-ylamino)-methylene]-1,3-dihydro-indol-2-one] | significant in-vivo activity
Cc1cc(NC=C2C(=O)Nc3ccc(F)cc32)n[nH]1 [Example 26, 5-Fluoro-3-[(5-methyl-1H-pyrazol-3-ylamino)-methylene]-1,3-dihydro-indol-2-one] | significant in-vivo activity

Tested on: VEGF induced increases in intracellular calcium levels in HUVEC (human umbilical vein endothelial cells)
Test: VEGF Stimulated Ca++ signal assay (FLIPR)
Type: cell-based
Conditions: 10 μM compound, 30 min pre-incubation, VEGF 5 ng/mL
Method: VEGF Stimulated Ca^++ Signal in vitro
as §1

SMILES | inhibition at 10 µM
Cc1cc(C)c(Cc2cc(NC=C3C(=O)Nc4ccccc43)[nH]n2)c(C)c1 [Example 36] | 69.3%

Same assay, conditions: VEGF 5 ng/mL, 0.01 to 10.0 μM

SMILES | IC50
Cc1cc(C)c(Cc2cc(NC=C3C(=O)Nc4ccccc43)[nH]n2)c(C)c1 [Example 36] | 5.9 µM

Biological target: T1, cytoplasmic domain of the human VEGF receptor (VEGFR-2) (Homo sapiens, UniProt P35968)
T1 construct: The cytoplasmic domain of the human VEGF receptor (VEGFR-2) was expressed as a Histidine-tagged fusion protein; His (Histidine tag); made in house; host or cells: insect cells infected with an engineered baculovirus
Test: KDR Assay (kinase ELISA, poly-Glu-Tyr substrate)
Type: biochemical
Conditions: His-VEGFR-2, 3.6 μM ATP
Method: Automated FLIPR (Fluorometric Imaging Plate Reader) technology was used to screen for inhibitors of VEGF induced increases in intracellular calcium levels in fluorescent dye loaded endothelial cells. HUVEC (human umbilical vein endothelial cells) (Clonetics) were seeded in 96-well fibronectin coated black-walled plates overnight @ 37° C./5% CO2. Cells were loaded with calcium indicator Fluo-4 for 45 minutes at 37° C. Cells were washed 4 times (Original Cell Wash, Labsystems) to remove extracellular dye. Test compounds were reconstituted in 100% DMSO and added to the cells to give a final DMSO concentration of 0.1%. For screening, cells were pre-incubated with test agents for 30 minutes, at a single concentration (10 μM) or at concentrations ranging from 0.01 to 10.0 μM followed by VEGF stimulation (5 ng/mL). Changes in fluorescence at 516 nm were measured simultaneously in all 96 wells using a cooled CCD camera. Data were generated by determining max-min fluorescence levels for unstimulated, stimulated, and drug treated samples. IC50 values for test compounds were calculated from % inhibition of VEGF stimulated responses in the absence of inhibitor. Protocol for KDR Assay: The cytoplasmic domain of the human VEGF receptor (VEGFR-2) was expressed as a Histidine-tagged fusion protein following infection of insect cells using an engineered baculovirus. His-VEGFR-2 was purified to homogeneity, as determined by SDS-PAGE, using nickel resin chromatography. Kinase assays were performed in 96 well microtiter plates that were coated overnight with 30 μg of poly-Glu-Tyr (4:1) in 10 mM Phosphate Buffered Saline (PBS), pH 7.2-7.4. The plates were incubated with 1% BSA and then washed four times with PBS prior to starting the reaction. Reactions were carried out in 120 μL reaction volumes containing 3.6 μM ATP in kinase buffer (50 mM Hepes buffer pH 7.4, 20 mM MgCl2, 0.1 mM MnCl2 and 0.2 mM Na3VO4). Test compounds were reconstituted in 100% DMSO and added to the reaction to give a final DMSO concentration of 5%. Reactions were initiated by the addition 0.5 ng of purified protein. Following a ten minute incubation at 25° C., the reactions were washed four times with PBS containing 0.05% Tween-20. 100 μl of a monoclonal anti-phosphotyrosine antibody-peroxidase conjugate was diluted 1:10000 in PBS-Tween-20 and added to the wells for 30 minutes. Following four washes with PBS-Tween-20, 100 μl of 0-Phenylenediamine Dihydrochloride in Phosphate-citrate buffer, containing urea hydrogen peroxide, was added to the wells for 7 minutes as a colorimetric substrate for the peroxidase. The reaction was terminated by the addition of 100 μl of 2.5N H2SO4 to each well and read using a microplate ELISA reader set at 492 nm. IC50 values for compound inhibition were calculated directly from graphs of optical density (arbitrary units) versus compound concentration following subtraction of blank values. Miles Assay Description VEGF-induced Dermal Extravasation in Guinea Pig (Miles Assay). Male Hartley guinea pigs (300-600 g) were anesthetized with isofluorane, sheared, and given a single oral dose of drug or the respective vehicle. Ten minutes prior to the end of drug treatment, guinea pigs were anesthetized with isofluorane, and 0.5% Evans blue dye (EBD) in PBS (13-15 mg/kg dose of EBD) was injected intravenously. After 5 minutes, triplicate intradermal injections of 100 ng rhVEGF165 in 100 μl PBS and of 100 μl PBS alone were administered on the flank. After 20 minutes, each animal was euthanized with Pentosol, and the skin containing the intradermal injection sites was removed for image analysis.

T1 sequence (P35968 786-1356 limits assumed): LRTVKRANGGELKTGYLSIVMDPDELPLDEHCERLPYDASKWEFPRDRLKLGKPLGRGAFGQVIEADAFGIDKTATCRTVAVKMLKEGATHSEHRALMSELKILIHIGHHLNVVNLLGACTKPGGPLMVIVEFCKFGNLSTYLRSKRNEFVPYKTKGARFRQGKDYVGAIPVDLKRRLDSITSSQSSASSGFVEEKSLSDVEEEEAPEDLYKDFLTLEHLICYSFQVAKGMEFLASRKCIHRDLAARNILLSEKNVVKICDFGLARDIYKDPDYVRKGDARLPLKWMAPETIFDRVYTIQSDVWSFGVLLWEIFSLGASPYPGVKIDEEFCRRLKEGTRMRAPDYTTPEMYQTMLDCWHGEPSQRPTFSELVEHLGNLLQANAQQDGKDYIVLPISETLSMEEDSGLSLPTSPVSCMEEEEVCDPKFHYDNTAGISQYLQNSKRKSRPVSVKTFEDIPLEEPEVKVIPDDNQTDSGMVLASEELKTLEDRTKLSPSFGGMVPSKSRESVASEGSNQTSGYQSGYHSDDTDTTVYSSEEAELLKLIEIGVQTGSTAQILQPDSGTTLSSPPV

SMILES | IC50
Cc1cccc2c1C(=CNc1n[nH]c(-c3ccccc3)c1Br)C(=O)N2 [Example 12, 3-[(4-Bromo-5-phenyl-1H-pyrazol-3-ylamino)-methylene]-4-methyl-1,3-dihydro-indol-2-one] | ≥ 10 µM
O=C1Nc2ccc(Cl)cc2C1=CNc1n[nH]c(-c2ccccc2)c1Br [Example 13, 3-[(4-Bromo-5-phenyl-1H-pyrazol-3-ylamino)-methylene]-5-chloro-1,3-dihydro-indol-2-one] | ≥ 10 µM
Cc1cc(C)c2c(NC=C3C(=O)Nc4ccccc43)n[nH]c2n1 [Example 25, 3-[(4,6-Dimethyl-1H-pyrazolo[3,4-b]pyridin-3-ylamino)-methylene]-1,3-dihydro-indol-2-one] | ≥ 10 µM
Cc1cc(C)c(Cc2cc(NC=C3C(=O)Nc4ccccc43)[nH]n2)c(C)c1 [Example 36] | ≥ 10 µM

The remaining lines, values ahead:

IC50 | SMILES
≥ 10 µM | COC(=O)c1ccc(-c2cc(NC=C3C(=O)Nc4ccccc43)n[nH]2)cc1 [Example 24, 4-{5-[(2-Oxo-1,2-dihydro-indol-3-ylidenemethyl)-amino]-2H-pyrazol-3-yl}-benzoic acid methyl ester]
≥ 10 µM | O=C1Nc2ccccc2C1=CNc1cc(-c2cc(OCc3ccccc3)cc(OCc3ccccc3)c2)n[nH]1 [Example 31, 3-{[5-(3,5-Bis-benzyloxy-phenyl)-2H-pyrazol-3-ylamino]-methylene}-1,3-dihydro-indol-2-one]
≥ 10 µM | Cc1ccc(-c2cc(NC=C3C(=O)Nc4ccccc43)[nH]n2)c(C)c1 [Example 34, 3-{[5-(2,4-Dimethyl-phenyl)-2H-pyrazol-3-ylamino]-methylene}-1,3-dihydro-indol-2-one]
≥ 10 µM | Cc1cccc(Cc2cc(NC=C3C(=O)Nc4ccccc43)[nH]n2)c1 [Example 39, 3-{[5-(3-Methyl-benzyl)-2H-pyrazol-3-ylamino]-methylene}-1,3-dihydro-indol-2-one]
≥ 10 µM | O=C1Nc2ccccc2C1=CNc1cc(Cc2ccccc2)n[nH]1 [Example 40, 3-[(5-Benzyl-2H-pyrazol-3-ylamino)-methylene]-1,3-dihydro-indol-2-one]
